Experimental data as given in patent US20130178653A1, “NOVEL PRECURSOR OF RADIOLABELLED CHOLINE ANALOG COMPOUNDS” (IMPERIAL COLLEGE, priority 2010, published 2013).
Where two headings read alike, the source gives them in different places. Blank lines part the entries; values can stand above or below the compound they belong to.

Tests used:
HCT116 tumors = assay: Effect of PD0325901 treatment in HCT116 tumor bearing mice ([^18F]D4-FCH-PET, tumor size); type: in vivo
Protocol: Dynamic [^18F]FCH and [^18F]D4-FCH imaging scans were carried out on a dedicated small animal PET scanner, quad-HIDAC (Oxford Positron Systems). The features of this instrument have been described previously (Barthel, H., et al., Cancer Res 2003; 63(13):3791-8). For scanning the tail veins, vehicle- or drug-treated mice were cannulated after induction of anesthesia (isofluorane/O2/N2O). The animals were placed within a thermostatically controlled jig (calibrated to provide a rectal temperature of ˜37° C.) and positioned prone in the scanner. [^18F]FCH or [^18F]D4-FCH (2.96-3.7 MBq) was injected via the tail vein cannula and scanning commenced. Dynamic scans were acquired in list mode format over a 60 min period as reported previously (Leyton, J., et al., Cancer Research 2006; 66(15):7621-9). The acquired data were sorted into 0.5 mm sinogram bins and 19 time frames (0.5×0.5×0.5 mm voxels; 4×15, 4×60, and 11×300 s) for image reconstruction, which was done by filtered back-projection using a two-dimensional Hamming filter (cutoff 0.6). The image data sets were visualized using the Analyze software (version 6.0; Biomedical Imaging Resource, Mayo Clinic). Cumulative images of 30 to 60 min dynamic data were used for visualization of radiotracer uptake and to draw regions of interest. Regions of interest were defined manually on five adjacent tumor regions (each 0.5 mm thickness). Dynamic data from these slices were averaged for each tissue (liver, kidney, muscle, urine, and tumor) and at each of the 19 time points to obtain time versus radioactivity curves. Corresponding whole body time versus radioactivity curves representing injected radioactivity were obtained by adding together radioactivity in all 200×160×160 reconstructed voxels. Tumor radioactivity was normalized to whole-body radioactivity and expressed as percent injected dose per voxel (% ID/vox). The normalized uptake of radiotracer at 60 min (% ID/vox60) was used for subsequent comparisons. […] The area under the curve was calculated as the integral of % ID/vox from 0 to 60 min

HCT116 cells = assay: Effect of PD0325901 on [^18F]D4-FCH metabolism and CHKA expression in HCT116 cells in culture; type: cell-based, human
Protocol: HCT116 cells were grown in T150 flasks in triplicate until they were 70% confluent and then treated with vehicle (1% DMSO in growth medium) or 1 μmol/L PD0325901 in vehicle for 24 h. Cells were pulsed for 1 h with 1.1 MBq of either [^18F]D4-FCH or [^18F]FCH. The cells were washed three times in ice-cold phosphate buffered saline (PBS), scraped into 5 mL PBS, and centrifuged at 500×g for 3 min and then resuspended in 2 mL ice-cold methanol for HPLC analysis as described above for tissue samples. […] Briefly, HCT116 cells were grown in 100 mm dishes in triplicate and incubated with 5.0 MBq [^18F]FCH for 60 min at 37° C. to form the putative [^18F]FCH-phosphate. The cells were washed with 5 mL ice-cold PBS twice and then scraped and centrifuged at 750×g (4° C., 3 min) in 5 mL PBS. Cells were homogenized in 1 mL of 5 mmol/L Tris-HCl (pH 7.4) containing 50% (v/v) glycerol, 0.5 mmol/L MgCl2, and 0.5 mmol/L ZnCl2 and incubated with 10 units bacterial (type III) alkaline phosphatase (Sigma) at 37° C. in a shaking water bath for 30 min to dephosphorylate the [^18F]FCH-phosphate. The reaction was terminated by adding ice-cold methanol. Samples were processed as per plasma above and analyzed by radio-HPLC. Control experiments were done without alkaline phosphatase. […]

choline kinase A (CHKA) = assay: Choline kinase A expression in HCT116 tumors by western blotting; type: in vivo, mice; details: day 10, 25 mg/kg daily orally
Protocol: HCT116 tumors from mice that were injected with PD0325901 (25 mg/kg daily for 10 days, orally) or vehicle were analyzed for CHKA expression by western blotting. β-actin was used as the loading control. (b) Summary densitometer measurements for CHKA expression expressed as a ratio to β-actin. The results are the mean ratios±SE; n=3, * P=0.05.
Size-matched HCT116 tumor bearing mice were randomized to receive daily treatment by oral gavage of vehicle (0.5% hydroxypropyl methylcellulose+0.2% Tween 80) or 25 mg/kg (0.005 mL/g mouse) of the mitogenic extracellular kinase inhibitor, PD0325901, prepared in vehicle. [^18F]D4-FCH-PET scanning was done after 10 daily treatments with the last dose administered 1 h before scanning. […] The results are illustrated in FIGS. 18 and 19.
To understand further the mechanisms regulating [^18F]D4-FCH uptake with drug treatment, changes in CHKA expression in PD0325901 and vehicle-treated tumors excised after PET scanning were assessed.

[1] = system: human melanoma SKMEL-28 xenografts; details: mouse, in vivo
Protocol: (§1) Dynamic [^18F]FCH and [^18F]D4-FCH imaging scans were carried out on a dedicated small animal PET scanner, quad-HIDAC (Oxford Positron Systems). The features of this instrument have been described previously (Barthel, H., et al., Cancer Res 2003; 63(13):3791-8). For scanning the tail veins, vehicle- or drug-treated mice were cannulated after induction of anesthesia (isofluorane/O2/N2O). The animals were placed within a thermostatically controlled jig (calibrated to provide a rectal temperature of ˜37° C.) and positioned prone in the scanner. [^18F]FCH or [^18F]D4-FCH (2.96-3.7 MBq) was injected via the tail vein cannula and scanning commenced. Dynamic scans were acquired in list mode format over a 60 min period as reported previously (Leyton, J., et al., Cancer Research 2006; 66(15):7621-9). The acquired data were sorted into 0.5 mm sinogram bins and 19 time frames (0.5×0.5×0.5 mm voxels; 4×15, 4×60, and 11×300 s) for image reconstruction, which was done by filtered back-projection using a two-dimensional Hamming filter (cutoff 0.6). The image data sets were visualized using the Analyze software (version 6.0; Biomedical Imaging Resource, Mayo Clinic). Cumulative images of 30 to 60 min dynamic data were used for visualization of radiotracer uptake and to draw regions of interest. Regions of interest were defined manually on five adjacent tumor regions (each 0.5 mm thickness). Dynamic data from these slices were averaged for each tissue (liver, kidney, muscle, urine, and tumor) and at each of the 19 time points to obtain time versus radioactivity curves. Corresponding whole body time versus radioactivity curves representing injected radioactivity were obtained by adding together radioactivity in all 200×160×160 reconstructed voxels. Tumor radioactivity was normalized to whole-body radioactivity and expressed as percent injected dose per voxel (% ID/vox). The normalized uptake of radiotracer at 60 min (% ID/vox60) was used for subsequent comparisons. The average of the normalized maximum voxel intensity across five slices of tumor % IDvox60max was also use for comparison to account for tumor heterogeneity and existence of necrotic regions in tumor. The area under the curve was calculated as the integral of % ID/vox from 0 to 60 min

[2] = for parent compound still present after potassium permanganate treatment: 1 hour post-treatment, KMnO4, Na2CO3, H2O, rt, radio-HPLC
[3] = system: HCT116 human colon xenografts; details: mouse, in vivo
Protocol: Time course biodistribution was carried out for [^18F]fluoromethylcholine, [^18F]fluoromethyl-[1-^2H2]choline and [^18F]fluoromethyl-[1,2-^2H4]choline in nude mice bearing HCT116 human colon xenografts.
Human colon (HCT116) tumors were grown in […] (Harlan, Bicester, United Kingdom) as previously reported (Leyton, J., et al., Cancer Research 2005; 65(10):4202-10). Tumor dimensions were measured continuously using a caliper and tumor volumes were calculated by the equation: volume=(π/6)×a×b×c, where a, b, and c represent three orthogonal axes of the tumor. Mice were used when their tumors reached approximately 100 mm^3. [^18F]Fluoromethylcholine, [^18F]fluoromethyl-[1-^2H2]choline and [^18F]fluoromethyl-[1,2-^2H4]choline (˜3.7 MBq) were each injected via the tail vein into awake untreated tumor bearing mice. The mice were sacrificed at pre-determined time points (2, 30 and 60 min) after radiotracer injection under terminal anesthesia to obtain blood, plasma, tumor, heart, lung, liver, kidney and muscle. Tissue radioactivity was determined on a gamma counter (Cobra II Auto-Gamma counter, Packard Biosciences Co, Pangbourne, UK) and decay corrected. Data were expressed as percent injected dose per gram of tissue.

choline oxidase [4] = assay: Enzymatic oxidation study using choline oxidase; details: 60 minute time point, room temperature, pH 7
[5] = mouse, in vivo
[6] = mouse, in vivo; for form of radioactivity in tumors: iv
Protocol: Metabolite analysis of tissues including liver, kidney and tumor by HPLC was also accomplished. […] Choline and its metabolites lack any UV chromophore to permit presentation of chromatograms of the cold unlabelled compound simultaneously with the radioactivity chromatograms.
Liver, kidney, and tumor samples were obtained at 30 min. All samples were snap-frozen in liquid nitrogen. […] To ˜0.2 mL plasma was added ice-cold methanol (1.5 mL). The mixture was then centrifuged (3 min, 15,493×g, 4jC). […] Liver, kidney, and tumor samples were homogenized in ice-cold methanol (1.5 mL) using an IKA Ultra-Turrax T-25 homogenizer and subsequently treated as per plasma samples (above). All samples were analyzed by radio-HPLC on an Agilent 1100 series HPLC system (Agilent Technologies) equipped with a γ-RAM Model 3 γ-detector (IN/US Systems) and Laura 3 software (Lablogic). The stationary phase comprised a Waters μBondapak C18 reverse-phase column (300×7.8 mm) (Waters, Milford, Mass., USA). Samples were analyzed using a mobile phase comprising solvent A (acetonitrile/water/ethanol/acetic acid/1.0 mol/L ammonium acetate/0.1 mol/L sodium phosphate; 800/127/68/2/3/10) and solvent B (acetonitrile/water/ethanol/acetic acid/1.0 mol/L ammonium acetate/0.1 mol/L sodiumphosphate; 400/400/68/44/88/10) with a gradient of 0% B for 6 min, then 0>100% B in 10 min, 100% B for 0.5 min, 100>0% B in 1.5 min then 0% B for 2 min, delivered at a flow rate of 3 mL/min

[7] = mouse, in vivo, 60 min
Protocol: as §1

[8] = Oxidation potential in vivo (radio-HPLC of mouse plasma after i.v. injection); details: 15 min after i.v. injection into mice
choline oxidase [9] = details: 60 min, 1.76 MBq/mL, pH 7

Structure (SMILES): O=C(NOC[C@H](O)CO)c1ccc(F)c(F)c1Nc1ccc(I)cc1F [PD0325901]
[^18F]D4-FCH radiotracer retention in treated tumors (HCT116 tumors; 10 daily treatments 25 mg/kg, HCT116 tumors, PET): marked reduction in radiotracer retention | imaging variables (% ID/vox60, % ID/vox60max, AUC) of [^18F]D4-FCH (HCT116 tumors; after 10 days of drug treatment, HCT116 tumors): decreased | reduction in tumor size compared to the pretreatment group (HCT116 tumors; day 10, 25 mg/kg daily oral, HCT116 xenograft): 12.2% | [^18F]D4-FCH-phosphocholine formation (HCT116 cells; 1 μmol/L for 24 h, 60-min uptake of [^18F]D4-FCH): significantly inhibited | CHKA expression in vitro (HCT116 cells; exponentially growing cells): reduction of CHKA expression | CHKA protein expression in tumors (choline kinase A (CHKA)): significant reduction

Structure (SMILES): [2H]C([2H])(O)C([2H])([2H])[N+](C)(C)C[18F] [[^18F]D4-FCH, [^18F]fluoromethyl-[1,2-^2H4]choline]
%IDvox60max (average of maximum pixel % ID/vox60 across 5 slices) compared to [^18F]FCH [1]: significantly higher | tumor area under the time versus radioactivity curve (AUC) compared to FCH [1]: higher | proportion of parent compound remaining (radio-HPLC), relative to [^18F]fluoromethylcholine ([2]; 20 min): greater proportion of the parent compound remaining | parent compound still present after potassium permanganate treatment [2]: ~80% | tumor uptake at the later time points [3]: pronounced increase | parent radiotracer present (radio-HPLC distribution of choline species) (choline oxidase [4]): 29±4% | percentage of parent compound in plasma compared to [^18F]FCH [5]: consistently higher | conversion of parent tracer to betaine metabolite in plasma ([5]; iv): 40% | kidney radioactivity in the form of betaine [6]: 20.6±6.2% | kidney radioactivity present as phosphocholine [6]: 60.6±3.7% | liver radioactivity present as phosphocholine [6]: high proportion | unknown metabolite (possibly the aldehyde intermediate) in liver [6]: 7.4±2.3% | unknown metabolite in kidney [6]: 8.8±0.2% | form of radioactivity in tumors [6]: mainly in the form of phosphocholine

tumor radiotracer uptake, % ID/vox60 ([1]; 60 min): 5.50±0.49 % ID/vox | bladder (urine) radioactivity, % ID/vox60 [7]: 6.70±0.71 % ID/vox | kidney radioactivity, % ID/vox60 [7]: 15.97±4.65 % ID/vox | liver radioactivity, % ID/vox60 [7]: 18.75±4.28 % ID/vox | parent compound still present after potassium permanganate treatment [2]: less than 40% | conversion of parent tracer to betaine metabolite in plasma [8]: 80% | liver radioactivity present as phosphocholine [6]: high proportion | unknown metabolite (possibly the aldehyde intermediate) in liver [6]: not found | kidney radioactivity in the form of betaine ([6]; 30 min): 53.5±5.3% | kidney radioactivity present as phosphocholine ([6]; 30 min): 31.8±9.8% | unknown metabolite in kidney ([6]; 30 min): 3.3±0.6% | form of radioactivity in tumors ([6]; 30 min): significant levels of [^18F]FCH-betaine | parent radiotracer present (radio-HPLC distribution of choline species) (choline oxidase [9]): 11±8%
Structure (SMILES): C[N+](C)(C[18F])CCO [[^18F]FCH, [^18F]Fluoromethylcholine]
